≈ marks a conversion by molar mass, not a printed value. Calls of active or inactive are those of the source. No cut-off for these calls is given here.
Experiments:
[1] = Inhibition of Escherichia coli DNA gyrase using relaxed pBR322 DNA as substrate by agarose gel electrophorosis method
[2] = tested on: Bacillus subtilis; assay: Antibacterial activity against aminoglycosides-susceptible Bacillus subtilis by double microdilution method; format: functional
[3] = tested on: Staphylococcus epidermidis; assay: Antibacterial activity against aminoglycosides-susceptible Staphylococcus epidermidis by double microdilution method; format: functional
[4] = tested on: Bacillus spizizenii; assay: Antibacterial activity against Bacillus subtilis ATCC 6633 in 15th subculture in presence of equimolar concentration of kanamycin A by double microdilution method; format: functional
[5] = Inhibition of Escherichia coli topoisomerase 4 using supercoiled pBR322 DNA as substrate by agarose gel electrophorosis method
[6] = tested on: Escherichia coli; assay: Inhibition of protein translation in Escherichia coli S30 cell extract using circular DNA with pBESTluc after 60 mins; format: functional
[7] = tested on: Escherichia coli; assay: Antibacterial activity against kanamycin-resistant Escherichia coli AG100A by double microdilution method; format: functional
[8] = Acute toxicity in iv dosed mouse at pH 6.6 administered for 4 days; format: organism-based; details: in vivo
[9] = tested on: Escherichia coli; assay: Antibacterial activity against Escherichia coli XL1 blue by double microdilution method; format: functional
[10] = tested on: Escherichia coli; assay: Ratio of MIC for aminoglycosides-resistant Escherichia coli BL21 harboring pSF815 encode for bifunctional AAC(6')/APH(2\") resistance enzyme to MIC for Escherichia coli BL21; format: functional
[11] = tested on: Escherichia coli; assay: Antibacterial activity against kanamycin-resistant Escherichia coli AG100B by double microdilution method; format: functional
[12] = tested on: Escherichia coli; assay: Antibacterial activity against aminoglycosides-resistant Escherichia coli BL21 harboring pETSACG1 encode for APH(3')-3a resistance enzyme by double microdilution method; format: functional
[13] = tested on: Escherichia coli; assay: Antibacterial activity against aminoglycosides-susceptible Escherichia coli 25922 by double microdilution method; format: functional; details: ATCC 25922
[14] = tested on: Escherichia coli; assay: Ratio of MIC for aminoglycosides-resistant Escherichia coli BL21 harboring pET11d encode for APH(3')-2b resistance enzyme to MIC for Escherichia coli BL21; format: functional
[15] = tested on: Escherichia coli; assay: Antibacterial activity against Escherichia coli BL21 by double microdilution method; format: functional
[16] = tested on: Escherichia coli; assay: Ratio of MIC for aminoglycosides-resistant Escherichia coli BL21 harboring pETSACG1 encode for APH(3')-3a resistance enzyme to MIC for Escherichia coli BL21; format: functional
[17] = tested on: Escherichia coli; assay: Antibacterial activity against aminoglycosides-resistant Escherichia coli BL21 harboring pET11d encode for APH(3')-2b resistance enzyme by double microdilution method; format: functional
[18] = tested on: Escherichia coli; assay: Antibacterial activity against aminoglycosides-resistant Escherichia coli BL21 harboring pSF815 encode for bifunctional AAC(6')/APH(2\") resistance enzyme by double microdilution method; format: functional
[19] = tested on: Escherichia coli; assay: Antibacterial activity against aminoglycosides-susceptible Escherichia coli R477-100 by double microdilution method; format: functional
[20] = tested on: Escherichia coli; assay: Antibacterial activity against Escherichia coli XL1 blue harboring pET9d encode for APH(3')-1a resistance enzyme by double microdilution method; format: functional
[21] = tested on: Escherichia coli; assay: Ratio of MIC for Escherichia coli XL1 blue harboring pET9d encode for APH(3')-1a resistance enzyme to MIC for Escherichia coli XL1 blue; format: functional
[22] = tested on: Escherichia coli; assay: Resistance index, ratio of MIC for Escherichia coli ATCC 35218 in 15th subculture to MIC for Escherichia coli ATCC 35218 in first subculture; format: functional
[23] = tested on: Bacillus spizizenii; assay: Resistance index, ratio of MIC for Bacillus subtilis ATCC 6633 in 15th subculture to MIC for Bacillus subtilis ATCC 6633 in first subculture; format: functional
[24] = tested on: Escherichia coli; assay: Antibacterial activity against Escherichia coli ATCC 35218 in 15th subculture in presence of equimolar concentration of ciprofloxacin by double microdilution method; format: functional
[25] = tested on: Bacillus spizizenii; assay: Antibacterial activity against Bacillus subtilis ATCC 6633 in 15th subculture in presence of equimolar concentration of ciprofloxacin by double microdilution method; format: functional
[26] = Escherichia coli, 1 h, read-out: IC50

Structure (SMILES) | IC50 ([1]; read-out: IC50) | MIC [2] | MIC [3] | IC50 ([5]; read-out: IC50) | MIC [7] | LD50 at 96 h [8] | MIC [9] | Ratio [10] | MIC [11] | MIC [12] | MIC [13] | Ratio [14] | MIC [15] | IC50 [6, 26] | Ratio [16] | MIC [17] | MIC [18] | MIC [19] | MIC [20] | Ratio [21] | further results
O=C(O)c1cn(C2CC2)c2cc(N3CCNCC3)c(F)cc2c1=O [CIPROFLOXACIN] | 1.3 µM | 0.02 µg/mL (≈ 0.0604 µM) | 0.094 µg/mL (≈ 0.284 µM) | 8.6 µM | < 0.005 µg/mL | – | – | – | – | – | – | – | – | – | – | – | – | – | – | – | Activity [4]: Active; IC50 [6]: Not Active
NCC[C@H](O)C(=O)N[C@@H]1C[C@H](N)[C@@H](O[C@H]2O[C@H](CN)[C@@H](O)[C@H](O)[C@H]2O)[C@H](O)[C@H]1O[C@H]1O[C@H](CO)[C@@H](O)[C@H](N)[C@H]1O [AMIKACIN] | – | – | – | – | – | 300 mg/kg | – | – | – | – | – | – | – | – | – | – | – | – | – | – | –
NC[C@H]1O[C@H](O[C@H]2[C@H](O)[C@@H](O[C@H]3O[C@H](CO)[C@@H](O)[C@H](N)[C@H]3O)[C@H](NC(=O)CCCc3cn(Cc4ccc(CN5CCN(c6cc7c(cc6F)c(=O)c(C(=O)O)cn7C6CC6)CC5)cc4)nn3)C[C@@H]2N)[C@H](O)[C@@H](O)[C@@H]1O | – | 3 µg/mL (≈ 2.84 µM) | 6 µg/mL (≈ 5.69 µM) | – | 0.75 µg/mL (≈ 0.711 µM) | – | 6 µg/mL (≈ 5.69 µM) | 1 | 24 µg/mL (≈ 22.7 µM) | 0.8 µg/mL (≈ 0.758 µM) | 3 µg/mL (≈ 2.84 µM) | 1 | 0.8 µg/mL (≈ 0.758 µM) | 2.19 µM | 1 | 0.8 µg/mL (≈ 0.758 µM) | 0.8 µg/mL (≈ 0.758 µM) | 6 µg/mL (≈ 5.69 µM) | – | – | –
NC[C@H]1O[C@H](O[C@H]2[C@H](O)[C@@H](O[C@H]3O[C@H](CO)[C@@H](O)[C@H](N)[C@H]3O)[C@H](NCc3cn(CCCCCCN4CCN(c5cc6c(cc5F)c(=O)c(C(=O)O)cn6C5CC5)CC4)nn3)C[C@@H]2N)[C@H](O)[C@@H](O)[C@@H]1O | – | 6 µg/mL (≈ 6.13 µM) | 24 µg/mL (≈ 24.5 µM) | – | 1.5 µg/mL (≈ 1.53 µM) | – | 12 µg/mL (≈ 12.3 µM) | 1 | 24 µg/mL (≈ 24.5 µM) | 0.8 µg/mL (≈ 0.817 µM) | 12 µg/mL (≈ 12.3 µM) | 1 | 0.8 µg/mL (≈ 0.817 µM) | 6.46 µM | 1 | 0.8 µg/mL (≈ 0.817 µM) | 0.8 µg/mL (≈ 0.817 µM) | 12 µg/mL (≈ 12.3 µM) | 12 µg/mL (≈ 12.3 µM) | 1 | –
NC[C@H]1O[C@H](O[C@H]2[C@H](O)[C@@H](O[C@H]3O[C@H](CO)[C@@H](O)[C@H](N)[C@H]3O)[C@H](NC(=O)CCc3cn(CCN4CCN(c5cc6c(cc5F)c(=O)c(C(=O)O)cn6C5CC5)CC4)nn3)C[C@@H]2N)[C@H](O)[C@@H](O)[C@@H]1O | 9.9 µM | 6 µg/mL (≈ 6.22 µM) | 18 µg/mL (≈ 18.7 µM) | > 100 µM | 0.75 µg/mL (≈ 0.777 µM) | – | 24 µg/mL (≈ 24.9 µM) | 2 | 24 µg/mL (≈ 24.9 µM) | 0.6 µg/mL (≈ 0.622 µM) | 3 µg/mL (≈ 3.11 µM) | 2 | 0.8 µg/mL (≈ 0.829 µM) | 19.2 µM | 3 | 0.4 µg/mL (≈ 0.415 µM) | 0.4 µg/mL (≈ 0.415 µM) | 6 µg/mL (≈ 6.22 µM) | 18 µg/mL (≈ 18.7 µM) | 1 | –
NC[C@H]1O[C@H](O[C@H]2[C@H](O)[C@@H](O[C@H]3O[C@H](CO)[C@@H](O)[C@H](N)[C@H]3O)[C@H](NCc3cn(CC(O)CN4CCN(c5cc6c(cc5F)c(=O)c(C(=O)O)cn6C5CC5)CC4)nn3)C[C@@H]2N)[C@H](O)[C@@H](O)[C@@H]1O (some centres not stated) | 5.9 µM | 1.5 µg/mL (≈ 1.57 µM) | 6 µg/mL (≈ 6.3 µM) | 19.8 µM | 0.37 µg/mL (≈ 0.388 µM) | – | 3 µg/mL (≈ 3.15 µM) | 1.5 | 12 µg/mL (≈ 12.6 µM) | 0.3 µg/mL (≈ 0.315 µM) | 1.5 µg/mL (≈ 1.57 µM) | 1.5 | 0.09 µg/mL (≈ 0.0944 µM) | 1.27 µM | 1.5 | 0.3 µg/mL (≈ 0.315 µM) | 0.3 µg/mL (≈ 0.315 µM) | 3 µg/mL (≈ 3.15 µM) | 3 µg/mL (≈ 3.15 µM) | 1 | Ratio [22]: 1.33; Ratio [23]: 2
NC[C@H]1O[C@H](O[C@H]2[C@H](O)[C@@H](O[C@H]3O[C@H](CO)[C@@H](O)[C@H](N)[C@H]3O)[C@H](NCc3cn(CCN4CCN(c5cc6c(cc5F)c(=O)c(C(=O)O)cn6C5CC5)CC4)nn3)C[C@@H]2N)[C@H](O)[C@@H](O)[C@@H]1O | – | 1.5 µg/mL (≈ 1.63 µM) | 6 µg/mL (≈ 6.5 µM) | – | – | – | – | – | – | – | 3 µg/mL (≈ 3.25 µM) | – | 0.2 µg/mL (≈ 0.217 µM) | 8.14 µM | – | – | – | 6 µg/mL (≈ 6.5 µM) | – | – | –
NC[C@@H]1O[C@H](O[C@H]2[C@@H](O)[C@H](O[C@@H]3[C@@H](O)[C@H](N)C[C@H](N)[C@H]3O[C@H]3O[C@H](CN)[C@@H](O)[C@H](O)[C@H]3N)O[C@@H]2CO)[C@H](N)[C@@H](O)[C@@H]1O [FRAMYCETIN] | – | – | – | – | – | 24 mg/kg | – | – | – | – | – | – | – | – | – | – | – | – | – | – | –
NC[C@H]1O[C@H](O[C@H]2[C@H](O)[C@@H](O[C@H]3O[C@H](CO)[C@@H](O)[C@H](N)[C@H]3O)[C@H](N)C[C@@H]2N)[C@H](O)[C@@H](O)[C@@H]1O [KANAMYCIN] | – | 1.5 µg/mL (≈ 3.1 µM) | 1.5 µg/mL (≈ 3.1 µM) | – | 96 µg/mL (≈ 198 µM) | 280 mg/kg | 3 µg/mL (≈ 6.19 µM) | >32 | 384 µg/mL (≈ 793 µM) | > 384 µg/mL | 48 µg/mL (≈ 99.1 µM) | >32 | 12 µg/mL (≈ 24.8 µM) | 0.03 µM | >32 | > 384 µg/mL | > 384 µg/mL | 12 µg/mL (≈ 24.8 µM) | > 384 µg/mL | >128 | IC50 [1]: Not Active; Activity [24]: inactive; Ratio [22]: 15; IC50 [5]: Not Active; Ratio [23]: 15; Activity [25]: Active
NC[C@H]1O[C@H](O[C@H]2[C@H](O)[C@@H](O[C@H]3O[C@H](CO)[C@@H](O)[C@H](N)[C@H]3O)[C@H](NCc3cn(Cc4ccc(CN5CCN(c6cc7c(cc6F)c(=O)c(C(=O)O)cn7C6CC6)CC5)cc4)nn3)C[C@@H]2N)[C@H](O)[C@@H](O)[C@@H]1O | 2.6 µM | 3 µg/mL (≈ 3 µM) | 3 µg/mL (≈ 3 µM) | 7.9 µM | 0.28 µg/mL (≈ 0.28 µM) | – | 3 µg/mL (≈ 3 µM) | 1 | 12 µg/mL (≈ 12 µM) | 0.1 µg/mL (≈ 0.1 µM) | 6 µg/mL (≈ 6.01 µM) | 1 | 0.8 µg/mL (≈ 0.801 µM) | 10.7 µM | 1 | 0.1 µg/mL (≈ 0.1 µM) | 0.1 µg/mL (≈ 0.1 µM) | 6 µg/mL (≈ 6.01 µM) | 3 µg/mL (≈ 3 µM) | 1 | Ratio [22]: 4; Ratio [23]: 4
